These results are taken from publication PMC12443583 (Nature Medicine, 2025).

In one data set the test system is p-MEK (Ser222). Nature of the data set: p-MEK in tumor biopsies, antibody bead-based Luminex. Format: in vivo, human. The settings on record: post-treatment versus pretreatment biopsy.
The test system of the next data set is p-ERK (Thr185–Try187). Nature of the data set: p-ERK in tumor biopsies, antibody bead-based Luminex. Format: in vivo, human. Particulars: post-treatment versus pretreatment biopsy.
Another data set concerns LGSOC. The settings on record: 23 (binimetinib), cited from earlier work; for progression-free interval / response rate: phase 2 and phase 3 trials, ref 24 (selumetinib), 25 (trametinib); for discontinuation rates because of AEs: ref 25 (trametinib).

Take `CNS(=O)(=O)Nc1nccc(Cc2c(C)c3ccc(Oc4ncccn4)cc3oc2=O)c1F` [avutometinib]: the “phosphorylation of p-MEK in tumor biopsies” value with p-MEK (Ser222) is “reduction”. The “phosphorylation of p-ERK in tumor biopsies” value in the data set with p-ERK (Thr185–Try187) is recorded as “reduction”.
In the case of `Cn1cnc2c(F)c(Nc3ccc(Br)cc3F)c(C(=O)NOCCO)cc21` [binimetinib], in the data set with LGSOC, the progression-free interval was 9.1 months, the response rate was 16% and the “discontinuation rates because of AEs” value was 31%.
As for `Cn1cnc2c(F)c(Nc3ccc(Br)cc3Cl)c(C(=O)NOCCO)cc21` [selumetinib], in the data set on LGSOC, the progression-free interval is 11 months and the response rate is 15%.
As to `CC(=O)Nc1cccc(-n2c(=O)n(C3CC3)c(=O)c3c(Nc4ccc(I)cc4F)n(C)c(=O)c(C)c32)c1` [trametinib], in the data set with LGSOC, the progression-free interval is reported as 13 months, the response rate is 26% and the “discontinuation rates because of AEs” value is reported as 36%.
